Test results taken from PubChem BioAssay AID256 (DTP/NCI, 2004).
“And” between values parts separate entries of the source, which are not always exact repeats. Equal entries are not always repeated. Toxic doses and inconclusive results are not listed. Rule for the calls: active = survival T/C of 150% or more; inactive = T/C below 125% in these data.

Tested on: CD2F1 mice, L1210 leukemia ip, survival T/C
Test: NCI In Vivo Anticancer Drug Screen. Data for tumor model L1210 Leukemia (intraperitoneal) in CD2F1 (CDF1) mice
Settings: higher = longer survival
In short: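 Vehicle-treated tumor-bearing mice served as controls (C) for compound-treated mice (T). Reported figure is T divided by C.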

[1] = endpoint: mean survival time, dose: 25.0 mg/kg/injection, schedule: Q01DX009 (ip), vehicle: other
[2] = endpoint: mean survival time, dose: 50.0 mg/kg/injection, schedule: Q01DX009 (ip), vehicle: other
[3] = endpoint: mean survival time, dose: 100.0 mg/kg/injection, schedule: Q01DX009 (ip), vehicle: other
[4] = endpoint: mean survival time, dose: 25.0 mg/kg/injection, schedule: Q01DX009 (ip), vehicle: saline
[5] = endpoint: mean survival time, dose: 50.0 mg/kg/injection, schedule: Q01DX009 (ip), vehicle: saline
[6] = endpoint: mean survival time, dose: 100.0 mg/kg/injection, schedule: Q01DX009 (ip), vehicle: saline with Tween-80
[7] = endpoint: mean survival time, dose: 200.0 mg/kg/injection, schedule: Q01DX009 (ip), vehicle: saline with Tween-80
[8] = endpoint: mean survival time, dose: 150.0 mg/kg/injection, schedule: Q01DX009 (ip), vehicle: saline

Measured: T/C

CC1=CC(C)(C)Nc2ccc(CSc3ccccc3)cc21
inactive: endpoint: mean survival time, dose: 12.5 mg/kg/injection, schedule: Q01DX009 (ip), vehicle: DMSO 102 % of control | endpoint: mean survival time, dose: 25.0 mg/kg/injection, schedule: Q01DX009 (ip), vehicle: DMSO 95 % of control | [1] 97 % of control | endpoint: mean survival time, dose: 50.0 mg/kg/injection, schedule: Q01DX009 (ip), vehicle: DMSO 97 % of control | [2] 93 % of control | [3] 96 % of control

CCCC(=O)NN=C(C)C
inactive: endpoint: mean survival time, dose: 12.5 mg/kg/injection, schedule: Q04DX003 (ip), vehicle: saline 105 % of control | endpoint: mean survival time, dose: 25.0 mg/kg/injection, schedule: Q04DX003 (ip), vehicle: saline 104 % of control | endpoint: mean survival time, dose: 50.0 mg/kg/injection, schedule: Q04DX003 (ip), vehicle: saline 107 % of control

C=C1CC2(OC1=O)C(=O)N(C)c1ccc(I)cc12 (stereo unspecified)
inactive: endpoint: mean survival time, dose: 6.25 mg/kg/injection, schedule: Q01DX009 (ip), vehicle: saline 100 % of control and 104 % of control | endpoint: mean survival time, dose: 12.5 mg/kg/injection, schedule: Q01DX009 (ip), vehicle: saline 100 % of control and 112 % of control | [4] 117 % of control and 102 % of control | [5] 105 % of control

CC1(C)OCC(C(O)C(OC(=O)c2ccccc2)C2COC(C)(C)O2)O1 (stereo unspecified)
inactive: endpoint: mean survival time, dose: 100.0 mg/kg/injection, schedule: Q01DX001 (ip), vehicle: saline with Tween-80 106 % of control | endpoint: mean survival time, dose: 200.0 mg/kg/injection, schedule: Q01DX001 (ip), vehicle: saline with Tween-80 94 % of control | endpoint: mean survival time, dose: 400.0 mg/kg/injection, schedule: Q01DX001 (ip), vehicle: saline with Tween-80 105 % of control

COC1OC(COC(C)=O)C(OC2OC(COC(C)=O)C(OC(C)=O)C(OC(C)=O)C2OC(C)=O)C(OC(C)=O)C1OC(C)=O (stereo unspecified)
inactive: [6] 98 % of control | [7] 104 % of control | endpoint: mean survival time, dose: 400.0 mg/kg/injection, schedule: Q01DX009 (ip), vehicle: saline with Tween-80 106 % of control

NC(N)=NC(N)=Nc1ccc(Cl)c(Cl)c1
inactive: endpoint: mean survival time, dose: 50.0 mg/kg/injection, schedule: Q01DX001 (ip), vehicle: Klucel (hydroxypropylcellulose) (HPC) 94 % of control | endpoint: mean survival time, dose: 100.0 mg/kg/injection, schedule: Q01DX001 (ip), vehicle: Klucel (hydroxypropylcellulose) (HPC) 105 % of control | [8] 108 % of control | endpoint: mean survival time, dose: 200.0 mg/kg/injection, schedule: Q01DX001 (ip), vehicle: Klucel (hydroxypropylcellulose) (HPC) 94 % of control

CSc1nn(C2OC(CO)C(O)C2O)c(=O)[nH]c1=O (stereo unspecified)
inactive: endpoint: mean survival time, dose: 12.5 mg/kg/injection, schedule: Q01DX005 (ip), vehicle: distilled water + Tween-80 102 % of control | endpoint: mean survival time, dose: 25.0 mg/kg/injection, schedule: Q01DX005 (ip), vehicle: distilled water + Tween-80 95 % of control | endpoint: mean survival time, dose: 50.0 mg/kg/injection, schedule: Q01DX005 (ip), vehicle: distilled water + Tween-80 98 % of control | endpoint: mean survival time, dose: 100.0 mg/kg/injection, schedule: Q01DX005 (ip), vehicle: distilled water + Tween-80 102 % of control | endpoint: mean survival time, dose: 200.0 mg/kg/injection, schedule: Q01DX005 (ip), vehicle: distilled water + Tween-80 104 % of control

Nc1cccc2[nH]c(=O)c3ccccc3c12
inactive: endpoint: mean survival time, dose: 100.0 mg/kg/injection, schedule: Q01DX001 (ip), vehicle: carboxymethylcellulose (CMC) 100 % of control | endpoint: mean survival time, dose: 200.0 mg/kg/injection, schedule: Q01DX001 (ip), vehicle: carboxymethylcellulose (CMC) 97 % of control | endpoint: mean survival time, dose: 400.0 mg/kg/injection, schedule: Q01DX001 (ip), vehicle: carboxymethylcellulose (CMC) 100 % of control

Cc1ccc(C2NC(=S)N3C(c4ccc(C)cc4)NC(=S)N23)cc1 (stereo unspecified)
inactive: endpoint: median survival time, dose: 25.0 mg/kg/injection, schedule: Q01DX009 (ip), vehicle: Klucel (hydroxypropylcellulose) (HPC) 105 % of control | endpoint: median survival time, dose: 50.0 mg/kg/injection, schedule: Q01DX009 (ip), vehicle: Klucel (hydroxypropylcellulose) (HPC) 104 % of control | endpoint: median survival time, dose: 100.0 mg/kg/injection, schedule: Q01DX009 (ip), vehicle: Klucel (hydroxypropylcellulose) (HPC) 106 % of control | endpoint: median survival time, dose: 200.0 mg/kg/injection, schedule: Q01DX009 (ip), vehicle: Klucel (hydroxypropylcellulose) (HPC) 104 % of control | endpoint: median survival time, dose: 400.0 mg/kg/injection, schedule: Q01DX009 (ip), vehicle: Klucel (hydroxypropylcellulose) (HPC) 101 % of control | endpoint: median survival time, dose: 800.0 mg/kg/injection, schedule: Q01DX009 (ip), vehicle: Klucel (hydroxypropylcellulose) (HPC) 106 % of control

C=C(N=[N+]=[N-])c1ccccc1
inactive: endpoint: mean survival time, dose: 12.5 mg/kg/injection, schedule: Q01DX009 (ip), vehicle: other 110 % of control | [1] 100 % of control | [2] 100 % of control | [3] 102 % of control

COc1nccnc1NS(=O)(=O)c1ccc(N)cc1
inactive: endpoint: mean survival time, dose: 100.0 mg/kg/injection, schedule: Q04DX003 (ip), vehicle: saline 98 % of control | endpoint: mean survival time, dose: 200.0 mg/kg/injection, schedule: Q04DX003 (ip), vehicle: saline 100 % of control | endpoint: mean survival time, dose: 400.0 mg/kg/injection, schedule: Q04DX003 (ip), vehicle: saline 104 % of control

CN(/N=N/c1nc[nH]c1C(N)=O)C(C)(C)C
inactive: endpoint: mean survival time, dose: 18.75 mg/kg/injection, schedule: Q01DX009 (ip), vehicle: Klucel (hydroxypropylcellulose) (HPC) 96 % of control | endpoint: mean survival time, dose: 37.5 mg/kg/injection, schedule: Q01DX009 (ip), vehicle: Klucel (hydroxypropylcellulose) (HPC) 110 % of control | endpoint: mean survival time, dose: 75.0 mg/kg/injection, schedule: Q01DX009 (ip), vehicle: Klucel (hydroxypropylcellulose) (HPC) 109 % of control | endpoint: mean survival time, dose: 150.0 mg/kg/injection, schedule: Q01DX009 (ip), vehicle: Klucel (hydroxypropylcellulose) (HPC) 109 % of control | endpoint: mean survival time, dose: 300.0 mg/kg/injection, schedule: Q01DX009 (ip), vehicle: Klucel (hydroxypropylcellulose) (HPC) 103 % of control

COS(=O)(=O)CC(O)(c1ccccc1)c1ccccc1
inactive: endpoint: mean survival time, dose: 75.0 mg/kg/injection, schedule: Q01DX009 (ip), vehicle: saline 102 % of control | endpoint: mean survival time, dose: 75.0 mg/kg/injection, schedule: Q04DX003 (ip), vehicle: saline 97 % of control | [8] 100 % of control | endpoint: mean survival time, dose: 150.0 mg/kg/injection, schedule: Q04DX003 (ip), vehicle: saline 95 % of control | endpoint: mean survival time, dose: 300.0 mg/kg/injection, schedule: Q01DX009 (ip), vehicle: saline 100 % of control | endpoint: mean survival time, dose: 300.0 mg/kg/injection, schedule: Q04DX003 (ip), vehicle: saline 95 % of control

O=C(CCCCl)CC(O)(C(F)(F)Cl)C(F)(F)Cl
inactive: [4] 94 % of control | [5] 100 % of control | endpoint: mean survival time, dose: 100.0 mg/kg/injection, schedule: Q01DX009 (ip), vehicle: saline 94 % of control

CC(C)C(C#[N+][O-])C(C)C
inactive: endpoint: mean survival time, dose: 75.0 mg/kg/injection, schedule: Q01DX001 (ip), vehicle: other 108 % of control | endpoint: mean survival time, dose: 150.0 mg/kg/injection, schedule: Q01DX001 (ip), vehicle: other 105 % of control | endpoint: mean survival time, dose: 300.0 mg/kg/injection, schedule: Q01DX001 (ip), vehicle: other 96 % of control

CC12CC(C(=O)O)C3(O)CC(C)(C1)CC(C)(C2)C3 (stereo unspecified) (tested in a mixture with another compound)
inactive: endpoint: mean survival time, dose: 12.5 mg/kg/injection, schedule: Q01DX009 (ip), vehicle: Klucel (hydroxypropylcellulose) (HPC) 95 % of control and 107 % of control | endpoint: mean survival time, dose: 25.0 mg/kg/injection, schedule: Q01DX009 (ip), vehicle: Klucel (hydroxypropylcellulose) (HPC) 101 % of control and 109 % of control | endpoint: mean survival time, dose: 50.0 mg/kg/injection, schedule: Q01DX009 (ip), vehicle: Klucel (hydroxypropylcellulose) (HPC) 87 % of control and 107 % of control | endpoint: mean survival time, dose: 100.0 mg/kg/injection, schedule: Q01DX009 (ip), vehicle: Klucel (hydroxypropylcellulose) (HPC) 98 % of control and 110 % of control | endpoint: mean survival time, dose: 200.0 mg/kg/injection, schedule: Q01DX009 (ip), vehicle: Klucel (hydroxypropylcellulose) (HPC) 101 % of control and 104 % of control | endpoint: mean survival time, dose: 400.0 mg/kg/injection, schedule: Q01DX009 (ip), vehicle: Klucel (hydroxypropylcellulose) (HPC) 98 % of control

C#CC(C)(C)OCC(CCl)OC(N)=O (stereo unspecified)
inactive: endpoint: mean survival time, dose: 25.0 mg/kg/injection, schedule: Q01DX009 (ip), vehicle: saline with Tween-80 97 % of control | endpoint: mean survival time, dose: 50.0 mg/kg/injection, schedule: Q01DX009 (ip), vehicle: saline with Tween-80 97 % of control | [6] 100 % of control | [7] 102 % of control
